Results on one molecule are retold here after PMC10366214, “The anti-Alzheimer potential of novel spiroindolin-1,2-diazepine derivatives as targeted cholinesterase inhibitors with modified substituents” (Scientific Reports, 2023).

By Ki is commonly meant a measure of affinity in units of concentration, obtained from inhibition or displacement. What is called IC50 is the point on the concentration scale where inhibition reaches its midpoint. Higher therefore signals a need for much substance. For orientation: inhibition means the change of the read-out against control, counted positive when it falls.

Data set [1] concerns the target T1, AChE (Homo sapiens, UniProt P22303). Put plainly: Enzyme kinetic study of AChE inhibition (Lineweaver-Burk, Ellman's method). In kind it is biochemical. The method, then: As previously reported, the kinetic study of AChE was carried out at five different concentrations of compound 5l and acetylthiocholine substrate (0.1–1 mM) by Ellman's method.
In data set [2] the target is T1, AChE. Description: biochemical. The method, then: (§1) Cholinesterase inhibitory activities of all analogs were evaluated spectrometrically using the modified Ellman method as previously reported[40],[41]. […] The absorbance of each well was measured at 415 nm using a microplate reader. IC50 values and inhibition values were calculated with the software GraphPad Prism as the mean of three independent experiments and are expressed as mean ± SEM.

In data set [3] the test system is SH-SY5Y neuroblastoma cell line. Description: MTT toxicity assay on SH-SY5Y. Format: cell-based. Particulars: 72 h exposure; tested concentrations up to 50 µM. The method, then:
SH-SY5Y cells were maintained in Dulbecco's modified Eagle medium with Ham's F12 medium (DMEM/F12) containing 15% fetal bovine serum100 units/ml penicillin and 100 µg/ml streptomycin. Cells were seeded into flasks containing supplemented medium and maintained at 37 °C in a humidified atmosphere of 5% CO2 and 95% air. Cell viability, virtually the mitochondrial activity of living cells, was measured by quantitative colorimetric assay with MTT, as described previously. MTT reagent, at a final concentration of 0.5 mg/ml, was added to each well at the end of the incubation period, and the plate was placed in a humidified incubator for an additional two h periods. Metabolically active cells convert the yellow MTT tetrazolium compound to a purple formazan product. Then, the insoluble formazan was dissolved with dimethylsulfoxide; colorimetric determination of MTT reduction was measured at 540 nm. Control cells treated media were taken as 100% viability.
For orientation: Tetrazolium dyes change colour on reduction, which living cells bring about.

The target in data set [4] is BChE (Homo sapiens, UniProt P06276). Put plainly: BChE inhibition, modified Ellman method. In kind it is biochemical. The method, then: as §1
A general note: DTNB colorimetry detects thiols as they appear.

“Also recorded” adds a separate entry of the source.

T1 sequence (P22303 32-614): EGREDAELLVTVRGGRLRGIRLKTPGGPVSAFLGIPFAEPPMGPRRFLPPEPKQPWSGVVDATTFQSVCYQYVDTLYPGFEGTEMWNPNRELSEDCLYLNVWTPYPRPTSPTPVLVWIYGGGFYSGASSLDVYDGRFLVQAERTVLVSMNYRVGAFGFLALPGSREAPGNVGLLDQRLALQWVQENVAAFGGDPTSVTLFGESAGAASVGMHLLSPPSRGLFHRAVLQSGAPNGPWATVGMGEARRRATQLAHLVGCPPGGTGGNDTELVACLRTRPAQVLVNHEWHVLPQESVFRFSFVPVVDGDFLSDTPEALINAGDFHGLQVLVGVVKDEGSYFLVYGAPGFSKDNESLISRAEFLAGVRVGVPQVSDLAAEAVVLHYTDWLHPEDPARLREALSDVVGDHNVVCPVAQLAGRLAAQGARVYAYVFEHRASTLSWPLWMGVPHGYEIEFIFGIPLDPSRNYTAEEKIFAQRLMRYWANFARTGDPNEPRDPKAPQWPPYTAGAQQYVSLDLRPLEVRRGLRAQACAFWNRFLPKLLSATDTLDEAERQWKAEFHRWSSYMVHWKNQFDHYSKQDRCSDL
Sequence of BChE (P06276 29-602): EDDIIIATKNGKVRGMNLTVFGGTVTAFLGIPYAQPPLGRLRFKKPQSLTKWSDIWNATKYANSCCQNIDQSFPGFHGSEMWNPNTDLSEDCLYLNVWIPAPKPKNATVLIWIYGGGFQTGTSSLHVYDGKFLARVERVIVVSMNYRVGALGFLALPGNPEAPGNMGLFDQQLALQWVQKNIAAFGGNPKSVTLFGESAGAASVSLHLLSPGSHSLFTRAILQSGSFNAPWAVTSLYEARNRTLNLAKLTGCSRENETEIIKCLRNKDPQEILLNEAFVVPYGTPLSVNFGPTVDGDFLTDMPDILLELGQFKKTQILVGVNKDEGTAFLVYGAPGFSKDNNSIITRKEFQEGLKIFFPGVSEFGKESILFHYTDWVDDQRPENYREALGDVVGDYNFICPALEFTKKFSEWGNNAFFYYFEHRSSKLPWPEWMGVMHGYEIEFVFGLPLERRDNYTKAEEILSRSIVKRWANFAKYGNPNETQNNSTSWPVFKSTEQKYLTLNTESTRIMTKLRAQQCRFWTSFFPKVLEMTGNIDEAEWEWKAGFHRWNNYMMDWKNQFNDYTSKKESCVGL

Take `N#CC1=C(N)NNC(Nc2ccc(O)cc2)=C([N+](=O)[O-])C12C(=O)Nc1ccc([N+](=O)[O-])cc12` (stereo not shown) [Compound 5l, 3-amino-7-((4-hydroxyphenyl)amino)-5',6-dinitro-2'-oxo-1,2-dihydrospiro[[1,2]diazepine-5,3'-indoline]-4-carbonitrile]: the “mode of AChE inhibition” value in data set [1] (Lineweaver-Burk plot) was “mixed mode; also recorded: mix type inhibitor; also recorded: mix-type inhibition”. The Ki in data set [1] (five inhibitor concentrations (1, 4, 8, 12, 24 µM), acetylthiocholine 0.1-1 mM, read-out: inhibition constant Ki against AChE) was found to be 0.044 µM. This molecule also yielded an IC50 in data set [2] of 3.98 ± 1.07 µM. Besides, the inhibition at 50 µM in data set [2] (read-out: AChE % inhibition at 50 µM) was found to be 87.4 ± 5.93%; in data set [4] (read-out: BChE % inhibition at 50 µM) it was 5.71 ± 2.82%. Also, the “toxicity against SH-SY5Y (MTT cell viability)” value in data set [3] is reported as “no toxicity; also recorded: did not show neurotoxicity”. Besides, the “inhibition against BChE (in words)” value in data set [4] is “no significant inhibition; also recorded: inactive”.
